Results: patent publication US9125904B1, “Biphenyl imidazoles and related compounds useful for treating HCV infections” (ACHILLION PHARMACEUTICALS, INC., priority 2010, dated 2015)
Where two headings read alike, the source gives them in different places.

Test system: HCV replicon
Assay: HCV replicon replication assay (NPT ELISA)
Format: cell-based
Conditions: Hepatitis C virus
Procedure: Compounds claimed herein are tested for the ability to inhibit viral replication of the Hepatitis C replicon in cultured cells in which the HCV replicon construct has been incorporated. The HCV replicon system was described by Bartenschlager, et. al (Science, 285, pp. 110-113 (1999)). The replicon system is predictive of in vivo anti-HCV activity; compounds that are active in humans uniformly evidence activity in the replicon assay.
In this assay HCV replicon containing cells are treated with different concentrations of the test compound to ascertain the ability of the test compound to suppress replication of the HCV replicon. As a positive control, HCV replicon-containing cells are treated with different concentrations of interferon alpha, a known inhibitor of HCV replication. The replicon assay system includes Neomycin Phosphotransferase (NPT) as a component of the replicon itself in order to detect the transcription of replicon gene products in the host cell. Cells in which the HCV replicon is actively replicating have high levels of NPT; the level of NPT is proportional to HCV replication. […] The NPT level of each sample is measured using a captured ELISA.
A protocol for testing compounds for the ability to inhibit viral replication of the Hepatitis C replicon cultured cells in which the replicon construct has been incorporated, follows.
The HCV replicon contains, 5′-3′, the HCV-IRES, the neomycin phosphotransferase (neo) gene, the IRES of encephalomyocarditis virus, which directs translation of HCV sequences NS3 to NS5B, and the 3′-NTR. The sequence of the HCV replicon has been deposited in GenBank (Accession no. AJ242652).
The replicon is transfected into Huh-7 cells using standard methods such as electroporation.
The equipment and materials include, but are not limited to, Huh-7 HCV replicon-containing cells, maintenance media (DMEM (Dulbecco's modified Eagle media) supplemented with 10% FBS, L-glutamine, non-essential amino acids, penicillin (100 units/ml), streptomycin (100 micrograms/ml), and 500 micrograms/ml of Geneticin (G418), screening media (DMEM supplemented with 10% FBS, L-glutamine, non-essential amino acids, penicillin (100 units/ml) and streptomycin (100 micrograms/ml)), 96 well tissue culture plates (flat bottom), 96 well plates (U bottom for drug dilution), Interferon alpha for positive control, fixation reagent (such as methanol: acetone), primary antibody (rabbit anti-NPTII), secondary antibody: Eu-N1 1, and enhancement solution.
HCV replicon-containing cells support high levels of viral RNA replicon replication when their density is suitable. Over-confluency causes decreased viral RNA replication. Therefore, cells must be kept growing in log phase in the presence of 500 micrograms/ml of G418. Generally, cells should be passed twice a week at 1: 4-6 dilution. Cell maintenance is conducted as follows:
HCV replicon-containing cells are examined under a microscope to ensure that cells growing well. Cells are rinsed once with PBS and 2 ml trypsin is added. The cell/trypsin mixture is incubated at 37° C. in a CO2 incubator for 3-5 minutes. After incubation 10 ml of complete media is added to stop the trypsinization reaction. Cells are blown gently, put into a 15 ml tube, and spun at 1200 rpm for 4 minutes. The trypsin/medium solution is removed. Medium (5 ml) is added and the cells are mixed carefully. The cells are counted.
The cells are then seeded onto 96-well plates at a density of 6000-7500 cells/100 microliters/well (6−7.5×10^5 cells/10 ml/plate). The plates are then incubated at 37° C. in a 5% CO2 incubator.
Cells are examined under a microscope approximated 24 hours after seeding and prior to adding drugs. If counting and dilution were performed correctly, cells are 60-70% confluent and nearly all cells should attach and spread evenly in the well.
HCV replicon-containing cells are rinsed with once PBS once; 2 mls of trypsin are then added. Cells are incubated at 37° C. in a 5% CO2 incubator for 3-5 minutes. […]

[1] = 72 h, Huh-7 HCV replicon-containing cells, three days, class symbols, read-out: EC50
[2] = 72 h, Huh-7 HCV replicon-containing cells, three days, numeric cells, read-out: EC50

Compound | EC50 [1] [nM] | further results
CCCS(=O)(=O)N1CCN(Cc2ccc(NC(=O)c3ccc(-c4ccc(C(=O)Nc5ccc(CN6CCN(S(=O)(=O)CCC)CC6)cc5)cc4)cc3)cc2)CC1 [Compound 17, N4,N4′-bis(4-((4-(propylsulfonyl)piperazin-1-yl)methyl)phenyl)biphenyl-4,4′-dicarboxamide] | < 50 | 
CCCS(=O)(=O)N1CCN(Cc2ccc(NC(=O)c3ccc(-c4ccc(-c5c[nH]c([C@@H]6CCCN6C(=O)OC(C)(C)C)n5)cc4)cc3)cc2)CC1 [Compound 18, (S)-tert-butyl 2-(4-(4′-(4-((4-(propylsulfonyl)piperazin-1-yl)methyl)phenylcarbamoyl)biphenyl-4-yl)-1H-imidazol-2-yl)pyrrolidine-1-carboxylate] | < 50 | 
CCCS(=O)(=O)N1CCN(Cc2ccc(NC(=O)c3ccc(-c4ccc(-c5c[nH]c([C@@H]6CCCN6C(=O)[C@@H](NC(=O)OC)C(C)C)n5)cc4)cc3)cc2)CC1 [Compound 19, methyl (S)-3-methyl-1-oxo-1-((S)-2-(4-(4′-(4-((4-(propylsulfonyl)piperazin-1-yl)methyl)phenylcarbamoyl)biphenyl-4-yl)-1H-imidazol-2-yl)pyrrolidin-1-yl)butan-2-ylcarbamate] | < 50 | 
CC(C)(C)OC(=O)N1CC=CC1c1nc(-c2ccc(-c3ccc(-c4c[nH]c([C@@H]5C=CCN5C(=O)OC(C)(C)C)n4)cc3)cc2)c[nH]1 (stereo partly drawn) [Compound 20, (2R,2′R)-tert-butyl 2,2′-(4,4′-(biphenyl-4,4′-diyl)bis(1H-imidazole-4,2-diyl))bis(2,5-dihydro-1H-pyrrole-1-carboxylate)] | < 100 | 
COC(=O)N[C@H](C(=O)N1CC=CC1c1nc(-c2ccc(-c3ccc(-c4c[nH]c([C@@H]5C=CCN5C(=O)[C@@H](NC(=O)OC)C(C)C)n4)cc3)cc2)c[nH]1)C(C)C (stereo partly drawn) [Compound 21, dimethyl (2S,2′S)-1,1′-((2R,2′R)-2,2′-(4,4′-(biphenyl-4,4′-diyl)bis(1H-imidazole-4,2-diyl))bis(1H-pyrrole-2,1(2H,5H)-diyl))bis(3-methyl-1-oxobutane-2,1-diyl)dicarbamate] | < 5 | 
CCCS(=O)(=O)N1CCN(Cc2ccc(C(=O)Nc3ccc(-c4ccc(-c5c[nH]c([C@@H]6CCCN6C(=O)[C@@H](NC(=O)OC)C(C)C)n5)cc4)cc3)cc2)CC1 [Compound 22, methyl (S)-3-methyl-1-oxo-1-((S)-2-(4-(4′-(4-((4-(propylsulfonyl)piperazin-1-yl)methyl)benzamido)biphenyl-4-yl)-1H-imidazol-2-yl)pyrrolidin-1-yl)butan-2-ylcarbamate] | < 5 | 
CNC(=O)C[C@H](C(=O)N1CCC[C@H]1c1ncc(-c2ccc(-c3cnc([C@@H]4CCCN4C(=O)[C@@H](CC(=O)NC)C(C)(C)C)[nH]3)cc2)[nH]1)C(C)(C)C [Compound 23, (3S,3′S)-3,3′-(2S,2′S)-2,2′-(5,5′-(1,4-phenylene)bis(1H-imidazole-5,2-diyl))bis(pyrrolidine-2,1-diyl)bis(oxomethylene)bis(N,4,4-trimethylpentanamide)] | < 50 | 
COC(=O)N[C@H](C(=O)N1C2CCC(C2)[C@H]1c1nc(-c2ccc(-c3ccc(-c4c[nH]c([C@@H]5C6CCC(C6)N5C(=O)[C@@H](NC(=O)OC)C(C)C)n4)cc3)cc2)c[nH]1)C(C)C [Compound 24, dimethyl (2S,2′S)-1,1′-((3S,3′S)-3,3′-(4,4′-(biphenyl-4,4'-diyl)bis(1H-imidazole-4,2-diyl))bis(2-azabicyclo[2.2.1]heptane-3,2-diyl))bis(3-methyl-1-oxobutane-2,1-diyl)dicarbamate] | < 5 | 
COC(=O)NC(C(=O)N1c2ccccc2C[C@H]1c1nc(-c2ccc(-c3ccc(-c4cnc([C@@H]5Cc6ccccc6N5C(=O)C(NC(=O)OC)C(C)C)[nH]4)cc3)cc2)c[nH]1)C(C)C (stereo partly drawn) [Compound 25, dimethyl (2R,2′R)-1,1′-((2S,2′S)-2,2′-(5,5′-(biphenyl-4,4′-diyl)bis(1H-imidazole-5,2-diyl))bis(indoline-2,1-diyl))bis(3-methyl-1-oxobutane-2,1-diyl)dicarbamate] | < 5 | EC50 (Huh-7): ≤ 10000 nM
COC(=O)N[C@@H](C(=O)N1c2ccccc2C[C@H]1c1nc(-c2ccc(-c3ccc(-c4cnc([C@@H]5Cc6ccccc6N5)[nH]4)cc3)cc2)c[nH]1)C(C)C [Compound 26, methyl (R)-1-((S)-2-(4-(4′-(2-((S)-indolin-2-yl)-1H-imidazol-5-yl)biphenyl-4-yl)-1H-imidazol-2-yl)indolin-1-yl)-3-methyl-1-oxobutan-2-ylcarbamate] | < 5 | 
CC(C)(C)OC(=O)N1c2ccccc2C[C@H]1c1nc(-c2ccc(-c3ccc(-c4cnc([C@@H]5Cc6ccccc6N5C(=O)OC(C)(C)C)[nH]4)cc3)cc2)c[nH]1 [Compound 27, (2S,2′S)-tert-butyl 2,2′-(5,5′-(biphenyl-4,4′-diyl)bis(1H-imidazole-5,2-diyl))diindoline-1-carboxylate] | < 50 | 
CC(=O)N[C@H](C(=O)N1CC=CC1c1nc(-c2ccc(-c3ccc(-c4c[nH]c(C5C=CCN5C(=O)[C@@H](NC(C)=O)C(C)C)n4)cc3)cc2)c[nH]1)C(C)C (stereo partly drawn) [Compound 28, N,N′-(2S,2′S)-1,1′-((2R,2′R)-2,2′-(4,4′-(biphenyl-4,4′-diyl)bis(1H-imidazole-4,2-diyl))bis(1H-pyrrole-2,1(2H,5H)-diyl))bis(3-methyl-1-oxobutane-2,1-diyl)diacetamide] | < 50 | 
CCS(=O)(=O)N[C@H](C(=O)N1C2CCC(C2)[C@H]1c1nc(-c2ccc(-c3ccc(-c4c[nH]c([C@@H]5C6CCC(C6)N5C(=O)[C@@H](NS(=O)(=O)CC)C(C)C)n4)cc3)cc2)c[nH]1)C(C)C [Compound 33, N,N′-(2S,2′S)-1,1′-((3S,3′S)-3,3′-(4,4′-(biphenyl-4,4′-diyl)bis(1H-imidazole-4,2-diyl))bis(2-azabicyclo[2.2.1]heptane-3,2-diyl))bis(3-methyl-1-oxobutane-2,1-diyl)diethanesulfonamide] | < 5 | EC50 (Huh-7): ≤ 10000 nM
COC(=O)NC(C(=O)N1CCC[C@H]1c1ncc(-c2ccc(-c3ccc(-c4c[nH]c([C@@H]5Cc6ccccc6N5C(=O)C(NC(=O)OC)C(C)C)n4)cc3)cc2)[nH]1)C(C)C (stereo partly shown) [Compound 35] | < 5 | 
COC(=O)N[C@H](C(=O)N1CCC[C@H]1c1ncc(-c2ccc(-c3ccc(-c4c[nH]c([C@@H]5C6CCC(C6)N5C(=O)[C@@H](NC(=O)OC)C(C)C)n4)cc3)cc2)[nH]1)C(C)C (stereo partly shown) [Compound 36] | < 50 | 
CNC(=O)C[C@H](C(=O)N1CCC[C@H]1c1ncc(-c2ccc3c(c2)Cc2cc(-c4cnc([C@@H]5CCCN5C(=O)[C@@H](CC(=O)NC)C(C)(C)C)[nH]4)ccc2-3)[nH]1)C(C)(C)C [Compound 37, (3S,3′S)-3,3′-(2S,2′S)-2,2′-(5,5′-(9H-fluorene-2,7-diyl)bis(1H-imidazole-5,2-diyl))bis(pyrrolidine-2,1-diyl)bis(oxomethylene)bis(N,4,4-trimethylpentanamide)] |  | EC50 (Huh-7, 72 h): > 1 nM
CNC(=O)C[C@H](C(=O)N1C2CCC(C2)[C@H]1c1nc(-c2ccc(-c3ccc(-c4cnc([C@@H]5C6CCC(C6)N5C(=O)[C@@H](CC(=O)NC)C(C)C)[nH]4)cc3)cc2)c[nH]1)C(C)C (stereo partly drawn) [Compound 38, (3S,3′S)-3,3′-(3S,3′S)-3,3′-(4,4′-(biphenyl-4,4′-diyl)bis(1H-imidazole-4,2-diyl))bis(2-azabicyclo[2.2.1]heptane-3,2-diyl)bis(oxomethylene)bis(N,4-dimethylpentanamide)] |  | EC50 [2]: > 1 nM; EC50 (Huh-7): ≤ 10000 nM
COC(=O)N[C@H](C(=O)N1CCC[C@H]1c1cnc(-c2ccc(-c3ccc(NC(=O)[C@H]4CCCCN4C(=O)[C@H](NC(=O)OC(C)(C)C)c4ccccc4)cc3)cc2)[nH]1)C(C)C [Compound 39] |  | EC50 [2]: > 1 nM; EC50 (Huh-7): ≤ 10000 nM
